Tested on: hydroponic rice seedlings
Test: Addition of 4,5-dimethylthiazole to hydroponic rice: growth, agronomic traits and nitrogen accumulation
Type: in vivo, indica (Heliangyou 332) and japonica (Nipponbare)
Conditions: for Dry Matter Mass of Rice, Root System / Dry Matter Mass of Rice, Shoot Part / Dry Matter Mass of Rice, Total / Leaf Area / Leaf Length / Leaf Width / Plant Height / Total Root Count: 25 days of cultivation
Method: Five addition concentrations of 4,5-dimethylthiazole (CAS No. 3581-91-7, see FIG. 1 for structural formula) were set, being 0, 5, 10, 20 and 50 mg/L, respectively, and a solvent was a rice nutrient solution. Two rice varieties were indica (Heliangyou 332) and japonica (Nipponbare), respectively. The rice was subjected to normal seed soaking, sowing and cultivation. When grown to one leaf and one tiller, rice seedlings were cultivated with mixed solution. Samples were collected after 25 days of cultivation. 30 plants were sampled from each treatment, where 15 plants were divided into two parts of stems and leaves, and root system, which were dried and weighed, and the other 15 plants were measured for agronomic traits.

## Cc1ncsc1C [4,5-dimethylthiazole]
5 mg/L
  Dry Matter Mass of Rice, Root System: 3.1 mg/plant
  Dry Matter Mass of Rice, Shoot Part: 17.0 mg/plant
  Dry Matter Mass of Rice, Total: 20.1 mg/plant
  Leaf Area: 3.39 cm^2
  Leaf Length: 10.73 cm
  Leaf Width: 0.38 cm
  Plant Height: 16.73 cm
  Total Root Count: 8.0 count/plant
10 mg/L
  Dry Matter Mass of Rice, Root System: 4.0 mg/plant
  Dry Matter Mass of Rice, Shoot Part: 24.3 mg/plant
  Dry Matter Mass of Rice, Total: 28.3 mg/plant
  Leaf Area: 3.03 cm^2
  Leaf Length: 10.88 cm
  Leaf Width: 0.34 cm
  Plant Height: 16.97 cm
  Total Root Count: 8.0 count/plant
20 mg/L
  Dry Matter Mass of Rice, Root System: 3.8 mg/plant
  Dry Matter Mass of Rice, Shoot Part: 22.0 mg/plant
  Dry Matter Mass of Rice, Total: 25.8 mg/plant
  Leaf Area: 3.16 cm^2
  Leaf Length: 11.08 cm
  Leaf Width: 0.34 cm
  Plant Height: 16.13 cm
  Total Root Count: 8.7 count/plant
50 mg/L
  Dry Matter Mass of Rice, Root System: 3.0 mg/plant
  Dry Matter Mass of Rice, Shoot Part: 19.7 mg/plant
  Dry Matter Mass of Rice, Total: 22.7 mg/plant
  Leaf Area: 3.01 cm^2
  Leaf Length: 9.23 cm
  Leaf Width: 0.39 cm
  Plant Height: 14.15 cm
  Total Root Count: 9.3 count/plant
5-50 mg/L, average
  increase of leaf area: 59.6%
  increase of leaf length: 33.9%
  increase of leaf width: 19.6%
  increase of rice plant height: 31.5%
  increase of total root count: 47.8%

— patent publication US20250366474A1, “USE OF 4,5-DIMETHYLTHIAZOLE IN PROMOTING PLANT GROWTH” (HUAZHONG AGRICULTURAL UNIVERSITY, priority 2024, published 2025)
